What was measured:
[1] = system: antinociception; test: warm-water tail immersion test, agonist; conditions: doses up to 100 mg/kg
[2] = target: μ opioid receptor (MOR) (Mus musculus, UniProt P42866); test: competitive radioligand binding, [3H]naloxone, monocloned receptor in CHO cells
[3] = target: MOR (Mus musculus, UniProt P42866); test: 35S-GTP[γS]-binding functional assay in MOR expressing CHO cells; type: biochemical; conditions: Emax relative to full agonist DAMGO (3 μM)
[4] = target: W318A mutant MOR (Mus musculus, UniProt P42866, W318A); type: binding
Sequence of W318A mutant MOR (P42866 whole entry W318A): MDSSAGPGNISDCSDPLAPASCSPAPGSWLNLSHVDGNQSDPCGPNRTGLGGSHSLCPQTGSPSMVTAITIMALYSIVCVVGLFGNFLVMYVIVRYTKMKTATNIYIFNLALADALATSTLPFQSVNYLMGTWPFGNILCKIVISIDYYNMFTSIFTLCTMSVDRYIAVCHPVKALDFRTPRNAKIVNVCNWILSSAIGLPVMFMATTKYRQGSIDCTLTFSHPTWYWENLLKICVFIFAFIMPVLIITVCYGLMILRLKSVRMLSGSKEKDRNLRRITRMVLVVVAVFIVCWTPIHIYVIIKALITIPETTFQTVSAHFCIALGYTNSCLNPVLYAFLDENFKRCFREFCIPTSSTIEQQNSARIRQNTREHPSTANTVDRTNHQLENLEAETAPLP

[5] = system: morphine antinociception; test: warm-water tail immersion test, blockade of morphine antinociception; conditions: sc, 5 min before morphine 10 mg/kg sc; 56 °C; tested 20 min later

Sequence of μ opioid receptor (MOR) (P42866 whole entry): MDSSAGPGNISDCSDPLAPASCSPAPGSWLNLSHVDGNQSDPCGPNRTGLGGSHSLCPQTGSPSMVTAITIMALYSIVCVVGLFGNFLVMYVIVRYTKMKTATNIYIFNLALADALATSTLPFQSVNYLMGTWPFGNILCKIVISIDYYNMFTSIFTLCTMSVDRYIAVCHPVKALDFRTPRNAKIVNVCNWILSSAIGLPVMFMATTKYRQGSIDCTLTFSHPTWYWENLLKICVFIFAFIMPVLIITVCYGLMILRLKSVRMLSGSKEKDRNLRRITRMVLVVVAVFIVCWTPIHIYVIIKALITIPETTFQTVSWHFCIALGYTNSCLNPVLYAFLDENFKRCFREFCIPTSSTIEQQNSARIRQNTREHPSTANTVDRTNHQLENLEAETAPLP
Sequence of MOR (P42866 whole entry): as above

| Compound | AD50 value (mg/kg (95% CL)) for blockade of morphine antinociception [5] | also measured |
| --- | --- | --- |
| O=C(N[C@H]1CC[C@@]2(O)[C@H]3Cc4ccc(O)c5c4[C@@]2(CCN3CC2CC2)[C@H]1O5)c1cc2ccccc2cn1 [Compound 9, 17-Cyclopropylmethyl-3,14β-dihydroxy-4,5α-epoxy-6α-[(3′-isoquinolyl)acetamido]morphinan] | 0.45 (0.27–0.78) mg/kg | agonist effect in tail immersion test [1]: neither of these ligands produced any agonist effect; selectivity for the MOR over the DOR [2]: over 200 fold; selectivity for the MOR over the KOR [2]: approximately 50 fold; % max of DAMGO [3]: approximately 20%; IC50 [4]: > 1000 nM |
| O=C(N[C@@H]1CC[C@@]2(O)[C@H]3Cc4ccc(O)c5c4[C@@]2(CCN3CC2CC2)[C@H]1O5)c1cc2ccccc2cn1 [Compound 10] | inactive | – |
| O=C(N[C@H]1CC[C@@]2(O)[C@H]3Cc4ccc(O)c5c4[C@@]2(CCN3CC2CC2)[C@H]1O5)c1cnc2ccccc2c1 [Compound 13, 17-Cyclopropylmethyl-3,14β-dihydroxy-4,5α-epoxy-6α-[(3′-quinolyl)acetamido]morphinan] | 4.45 (2.41–8.15) mg/kg | – |
| O=C(N[C@@H]1CC[C@@]2(O)[C@H]3Cc4ccc(O)c5c4[C@@]2(CCN3CC2CC2)[C@H]1O5)c1cnc2ccccc2c1 [Compound 14, 17-Cyclopropylmethyl-3,14β-dihydroxy-4,5α-epoxy-6β-[(3′-quinolyl)acetamido]morphinan] | 42.55 (23.67–76.51) mg/kg | – |
| C=CCN1CC[C@]23c4c5ccc(O)c4O[C@H]2C(=O)CC[C@@]3(O)[C@H]1C5 [naloxone, reference compound] | 0.05 (0.03–0.09) mg/kg | – |
